Article PMC6017844, “4-Thiazolidinone Derivatives as MMP Inhibitors in Tissue Damage: Synthesis, Biological Evaluation and Docking Studies” (Molecules : A Journal of Synthetic Chemistry and Natural …, 2018)

Experiments:
[1] = biological target: T1, human recombinant MMP-9 (Homo sapiens, UniProt P14780); assay: MMP-9 fluorimetric assay; format: biochemical; details: catalytic domain of MMP-9 10 nM, substrate 350 nM, 25 °C, pH 7; mean ± SD (n = 3); n.a. = not active; read-out: IC50 Value
T1 construct: using 10 nM of proteolytic enzyme (catalytic domains of MMP-9 (Biomol, Inc.)); purchased Biomol, Inc
Method: The synthesized compounds 13–19, 22 and 23 were tested for their in vitro ability to inhibit human recombinant MMP-9. Table 2 reports the results of this inhibition assay, expressed as IC50 (µM). […] We used as positive control a potent MMPs inhibitor, NNGH (N-isobutyl-N-(4-methoxy-phenylsulfonyl)glycylhydroxamic acid).
The compounds were evaluated for their ability to inhibit the hydrolysis of fluorescence-quenched peptide substrate Mca-Pro-Leu-Gly-Leu-Dpa-Ala-Arg-NH2 (Biomol, Inc., Enzo Life Sciences, Inc., Farmingdale, NY, USA). The MMP-9 assays were performed in 50 mM HEPES buffer containing 5 mM CaCl2, 0.1 mM ZnCl2, 0.05% Brij-35, at pH 7, using 10 nM of proteolytic enzyme (catalytic domains of MMP-9 (Biomol, Inc.) and 350 nM of peptide substrate. The enzyme was incubated at 25 °C with increasing concentration (0.0004, 0.004, 0.04, 0.4, 4, 40, 400 µM) of compounds, and the fluorescence (excitation max 328 nm; emission max 393 nm) was measured for 3 min after the addition of the substrate using a Victor Wallac 1420 Multilabel Counters fluorimeter (Perkin Elmer, Waltham, MA, USA). The fluorescence values of the samples were plotted against the time with a linear regression fit, using the Origin software, version 7 (Origin Lab Corporation, Northampton, MA, USA). The slope of the line value for each inhibitor concentrations was obtained where an increase of the slope corresponds to a decrease of inhibitory activity. Subsequently, the IC50 values were obtained from a non-linear regression procedure (log inhibitor vs. response) with a variables slope of the regression line (Y) and the molar inhibitor concentration (X), using the software Origin®7 (Origin Lab Corporation). The IC50 value was obtained from the equation Y = P1/(1 + X/P2). NNGH (N-Isobutyl-N-(4-methoxyphenylsulfonyl)glycylhydroxamic acid) a potent MMPs inhibitor was used as a positive control.

[2] = Oxygen Radical Absorbance Capacity (ORAC) assay; details: fluorescein 10 nM, AAPH 100 mM, 37 °C, pH 7.0; mean ± SD (n = 3); Trolox = 1 ORAC Units
Source text: Free radicals and ROS are highly reactive molecules that are generated by normal cellular processes. They react with cellular components, damaging DNA, carbohydrates, proteins, and lipids causing cellular and tissue injury. Although organisms have developed complex antioxidant systems to protect themselves from oxidative substances, an excess of ROS production can lead to inflammation and several disease state. ORAC test measures both lipophilic and hydrophilic antioxidant capacity and determines the ability of antioxidants to protect proteins from damage caused by free radicals. ORAC assay has been widely accepted as a standard in vitro to measure the antioxidant activity of synthetic compounds, measuring their capacity to transfer hydrogen atom. The assay measures the loss of fluorescence over time due to peroxyl-radical formation by the breakdown of 2,2′-azobis-2-methyl-propanimidamide dihydrochloride (AAPH). 6-Hydroxy-2,5,7,8-tetramethylchroman-2-carboxylic acid (Trolox), a water soluble vitamin E analog, is a positive control that inhibits the fluorescein decay in a dose dependent manner. The ORAC assay is a kinetic assay measuring fluorescein decay and antioxidant protection over time.
The ORAC assay was performed as previously reported by Cao et al.. The measurements were carried out on a Wallac 1420 Victor^3 96-well plate reader (EG & Wallac, Turku, Finland) with fluorescence filter ([…]). Fluorescein (10 nM) was the fluorescence probe and target molecule for free radical attack from AAPH (100 mM) as peroxyl radical generator. The reaction was conducted at 37 °C at pH 7.0 with Trolox (12.5 μM) as control standard and phosphate buffer as blank. Compounds 13–19 and 22–23 were appropriately diluted with DMSO/buffer (1:10) prior to analysis. The fluorescein fluorescence was recorded every 2 min after addition of AAPH. All measurements were expressed relative to the initial reading. One blank, one standard, and a maximum of 10 samples were analyzed at the same time. Each measure was repeated at least three times. The ORAC value refers to the net protection area under the quenching curve of fluorescein in the presence of an antioxidant. The final results (ORAC value) were calculated and expressed using Trolox equivalents (TE) per gram of extract (TE/g):ORAC value (μM) = K(S sample − S blank)/(S Trolox − S blank)(1) where K is a sample dilution factor, S is the area under the fluorescence decay curve of the sample, Trolox or blank. This area was calculated with Origin®7 (OriginLab Corporation, Northampton, MA, USA).

T1 sequence (P14780 107-444 limits assumed): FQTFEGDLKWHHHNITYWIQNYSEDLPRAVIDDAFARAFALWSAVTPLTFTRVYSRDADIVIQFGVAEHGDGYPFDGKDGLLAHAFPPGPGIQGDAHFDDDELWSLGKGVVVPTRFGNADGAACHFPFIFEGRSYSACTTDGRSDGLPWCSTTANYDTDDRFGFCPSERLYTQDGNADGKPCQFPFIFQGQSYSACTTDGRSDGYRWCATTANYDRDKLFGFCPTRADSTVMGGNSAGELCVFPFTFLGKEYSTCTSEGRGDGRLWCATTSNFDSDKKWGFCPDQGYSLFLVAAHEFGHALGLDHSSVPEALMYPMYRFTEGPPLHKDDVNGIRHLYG

SMILES	IC50 [1] [µM]	melting point [°C]	ORAC UNITs [2]
COc1ccc(S(=O)(=O)N(CC(=O)NO)CC(C)C)cc1 [NNGH, N-isobutyl-N-(4-methoxy-phenylsulfonyl)glycylhydroxamic acid, reference compound]	0.0065 ± 0.00025		
COc1ccc(C2SCC(=O)N2NC(=O)C(C)c2nsc3ccccc23)cc1 (centres unmarked) (hydrate or solvate) [Compound 15, 2-(1,2-Benzothiazol-3-yl)-N-[2-(4-methoxyphenyl)-4-oxo-1,3-thiazolidin-3-yl]propanamide]		170	
CC(C(=O)NN1C(=O)CSC1c1ccc([N+](=O)[O-])cc1)c1nsc2ccccc12 (centres unmarked) (hydrate or solvate) [Compound 19, 2-(1,2-Benzothiazol-3-yl)-N-[2-(4-nitrophenyl)-4-oxo-1,3-thiazolidin-3-yl]propanamide]		208 to 209	
CC(C(=O)NN1C(=O)CSC1c1ccccc1)c1nsc2ccccc12 (centres unmarked) [Compound 13, 2-(1,2-Benzothiazol-3-yl)-N-(4-oxo-2-phenyl-1,3-thiazolidin-3-yl)propanamide]	7.99 ± 0.65		0.61 ± 0.14 ORAC unit (μmol of Trolox equi
COc1ccc(C2SCC(=O)N2NC(=O)C(C)c2nsc3ccccc23)cc1 (centres unmarked) [Compound 15, 2-(1,2-Benzothiazol-3-yl)-N-[2-(4-methoxyphenyl)-4-oxo-1,3-thiazolidin-3-yl]propanamide]	6.82 ± 0.95		0.66 ± 0.12 ORAC unit (μmol of Trolox equi
CC(C(=O)NN1C(=O)CSC1c1ccc(F)cc1)c1nsc2ccccc12 (centres unmarked) [Compound 16, 2-(1,2-Benzothiazol-3-yl)-N-[2-(4-fluorophenyl)-4-oxo-1,3-thiazolidin-3-yl]propanamide]	17.2 ± 1.92		0.46 ± 0.20 ORAC unit (μmol of Trolox equi
CC(C(=O)NN1C(=O)CSC1c1ccc(C(F)(F)F)cc1)c1nsc2ccccc12 (centres unmarked) (hydrate or solvate) [Compound 17, 2-(1,2-Benzothiazol-3-yl)-N-{4-oxo-2-[4-(trifluoromethyl)phenyl]-1,3-thiazolidin-3-yl}propanamide]		145 to 147	
CC(C(=O)NN1C(=O)CSC1c1ccc(Cl)cc1)c1nsc2ccccc12 (centres unmarked) (hydrate or solvate) [Compound 18, 2-(1,2-Benzothiazol-3-yl)-N-[2-(4-chlorophenyl)-4-oxo-1,3-thiazolidin-3-yl]propanamide]		187 to 188	
Cc1ccc(C2SCC(=O)N2NC(=O)C(C)c2nsc3ccccc23)cc1 (centres unmarked) [Compound 14, 2-(1,2-Benzothiazol-3-yl)-N-[2-(4-methylphenyl)-4-oxo-1,3-thiazolidin-3-yl]propanamide]	9.01 ± 0.45		0.40 ± 0.06 ORAC unit (μmol of Trolox equi
CC(C(=O)NN1C(=O)CSC1c1ccccc1)c1nsc2ccccc12 (centres unmarked) (hydrate or solvate) [Compound 13, 2-(1,2-Benzothiazol-3-yl)-N-(4-oxo-2-phenyl-1,3-thiazolidin-3-yl)propanamide]		239 to 240	
CC(C(=O)NN1C(=O)CSC1c1ccc([N+](=O)[O-])cc1)c1nsc2ccccc12 (centres unmarked) [Compound 19, 2-(1,2-Benzothiazol-3-yl)-N-[2-(4-nitrophenyl)-4-oxo-1,3-thiazolidin-3-yl]propanamide]	22.1 ± 1.42		0.40 ± 0.17 ORAC unit (μmol of Trolox equi
CC(C(=O)NN1C(=O)CSC1c1ccc(Cl)cc1)c1nsc2ccccc12 (centres unmarked) [Compound 18, 2-(1,2-Benzothiazol-3-yl)-N-[2-(4-chlorophenyl)-4-oxo-1,3-thiazolidin-3-yl]propanamide]	16.1 ± 1.23		0.47 ± 0.23 ORAC unit (μmol of Trolox equi
CC(C(=O)NN1C(=O)CSC1c1ccc(C(F)(F)F)cc1)c1nsc2ccccc12 (centres unmarked) [Compound 17, 2-(1,2-Benzothiazol-3-yl)-N-{4-oxo-2-[4-(trifluoromethyl)phenyl]-1,3-thiazolidin-3-yl}propanamide]			0.27 ± 0.06 ORAC unit (μmol of Trolox equi
CC(C(=O)NN1C(=O)CSC1c1ccc(F)cc1)c1nsc2ccccc12 (centres unmarked) (hydrate or solvate) [Compound 16, 2-(1,2-Benzothiazol-3-yl)-N-[2-(4-fluorophenyl)-4-oxo-1,3-thiazolidin-3-yl]propanamide]		185 to 186	
